Measurements as given in ChEMBL document CHEMBL1800027, “Imidazolopiperazines: hit to lead optimization of new antimalarial agents” (J Med Chem, 2011).

Experiments:
[1] = tested on: Plasmodium falciparum; assay: Antimalarial activity against Plasmodium falciparum W2 infected in human erythrocytes assessed as decrease in parasitemia after 72 hrs; assay type: functional, organism-based; settings: W2, 72 h
[2] = Selectivity index, ratio TC50 for human HuH7 cells to IC50 for Plasmodium falciparum; assay type: functional, Huh-7
[3] = Selectivity index, ratio TC50 for human HeLa cells to IC50 for Plasmodium falciparum; assay type: functional
[4] = Cytotoxicity against human HuH7 cells; assay type: cell-based; settings: Huh-7 cells, read-out: TC50 (the source's name)
[5] = tested on: Plasmodium falciparum; assay: Antimalarial activity against Plasmodium falciparum 3D7 infected in human erythrocytes assessed as decrease in parasitemia after 72 hrs; assay type: functional, organism-based; settings: 3D7, 72 h
[6] = in vivo; settings: female, CD1, mouse, po, 30 mg/kg
Description: Half life in female CD1 mouse at 20 mg/kg, po by LC/MS/MS analysis

[7] = in vivo; settings: female, CD1, mouse, iv, 5 mg/kg
Description: Half-life in female CD1 mouse at 5 mg/kg, iv by LC/MS/MS analysis

[8] = Oral bioavailability in female CD1 mouse at 30 mg/kg by LC/MS/MS analysis; settings: female, CD1, mouse, in vivo
[9] = Tmax in female CD1 mouse at 30 mg/kg, po by LC/MS/MS analysis; settings: in vivo
[10] = pampa
Description: Permeability of the compound assessed as amount of compound absorbed by PAMPA method

[11] = in vitro; settings: human, Caco-2
Description: Apparent permeability from apical to basolateral side in human Caco2 cells by LC/MS analysis

[12] = Cmax in female CD1 mouse at 30 mg/kg, po by LC/MS/MS analysis; settings: in vivo
[13] = in vivo; settings: female, CD1, mouse, plasma, iv, 5 mg/kg
[14] = in vivo; settings: female, CD1, mouse, iv, 5 mg/kg; remark: listed apart in the source
Description: Volume of distribution in female CD1 mouse at 5 mg/kg, iv by LC/MS/MS analysis

[15] = in vivo; settings: female, CD1, mouse, plasma, po, 30 mg/kg
[16] = in vivo; settings: female, CD1, mouse, iv, 5 mg/kg; remark: listed apart in the source
Description: Clearance in female CD1 mouse at 5 mg/kg, iv by LC/MS/MS analysis

[17] = in vitro; settings: mouse
Description: Metabolic stability in mouse hepatic microsomes assessed as extraction ratio by LC/MS/MS analysis

[18] = tested on: Plasmodium berghei; assay: Antimalarial activity against GFP-tagged Plasmodium berghei ANKA infected in NMRI mouse assessed as mouse survival at 100 mg/kg, po administered as single dose 24 hrs post infection measured on day 30 post infection
[19] = molecular target: Voltage-gated inwardly rectifying potassium channel KCNH2 (Homo sapiens, UniProt Q12809)
Chain of Voltage-gated inwardly rectifying potassium channel KCNH2 (Q12809 whole entry): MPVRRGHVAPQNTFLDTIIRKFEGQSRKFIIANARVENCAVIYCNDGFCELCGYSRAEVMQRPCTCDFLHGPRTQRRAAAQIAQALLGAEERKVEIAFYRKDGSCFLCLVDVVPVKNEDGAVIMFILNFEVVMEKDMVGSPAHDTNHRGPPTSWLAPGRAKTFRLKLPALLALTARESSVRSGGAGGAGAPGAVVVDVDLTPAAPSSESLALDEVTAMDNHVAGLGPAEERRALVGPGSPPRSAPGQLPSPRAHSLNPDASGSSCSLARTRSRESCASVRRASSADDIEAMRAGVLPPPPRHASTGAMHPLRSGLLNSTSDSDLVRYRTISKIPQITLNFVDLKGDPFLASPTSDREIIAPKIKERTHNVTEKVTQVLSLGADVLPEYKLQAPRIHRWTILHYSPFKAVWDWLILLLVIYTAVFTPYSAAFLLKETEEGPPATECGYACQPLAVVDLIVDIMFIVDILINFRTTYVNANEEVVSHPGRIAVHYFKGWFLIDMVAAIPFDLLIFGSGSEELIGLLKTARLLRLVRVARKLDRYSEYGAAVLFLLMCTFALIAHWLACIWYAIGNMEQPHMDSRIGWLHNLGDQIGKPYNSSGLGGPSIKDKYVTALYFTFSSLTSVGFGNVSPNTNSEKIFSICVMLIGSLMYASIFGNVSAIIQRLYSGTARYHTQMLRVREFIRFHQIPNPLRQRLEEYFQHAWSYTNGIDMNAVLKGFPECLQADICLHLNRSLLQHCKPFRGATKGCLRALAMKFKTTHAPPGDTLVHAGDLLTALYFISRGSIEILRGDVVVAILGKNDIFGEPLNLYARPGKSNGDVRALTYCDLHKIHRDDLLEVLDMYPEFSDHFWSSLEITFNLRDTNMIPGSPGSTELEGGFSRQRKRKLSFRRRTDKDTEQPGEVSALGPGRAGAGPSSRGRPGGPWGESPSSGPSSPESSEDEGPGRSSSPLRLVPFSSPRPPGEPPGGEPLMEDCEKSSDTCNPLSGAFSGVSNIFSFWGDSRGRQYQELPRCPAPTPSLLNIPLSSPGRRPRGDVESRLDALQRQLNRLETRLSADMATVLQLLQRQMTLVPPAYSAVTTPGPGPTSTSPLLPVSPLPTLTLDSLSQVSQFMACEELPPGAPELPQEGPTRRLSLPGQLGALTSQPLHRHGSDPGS
Description: Inhibition of human ERG expressed in CHO cells by Q-patch assay

[20] = tested on: Plasmodium berghei; assay: Antimalarial activity against GFP-tagged Plasmodium berghei ANKA infected in NMRI mouse assessed as mouse survival at 30 mg/kg, po administered as single dose 24 hrs post infection measured 72 hrs post infection
[21] = tested on: Plasmodium berghei; assay: Antimalarial activity against GFP-tagged Plasmodium berghei ANKA infected in NMRI mouse assessed as reduction in parasitemia at 30 mg/kg, po administered as single dose 24 hrs post infection measured 72 hrs post infection; assay type: functional; design: scale not given: the % may be the effect or the level left
[22] = in vitro; settings: human, Caco-2; remark: listed apart in the source
Description: Apparent permeability from basolateral to apical side in human Caco2 cells by LC/MS analysis

[23] = tested on: Plasmodium berghei; assay: Antimalarial activity against GFP-tagged Plasmodium berghei ANKA infected in NMRI mouse assessed as reduction in parasitemia at 30 mg/kg, po QD administered 24 hrs post infection for 3 days measured on day 4 post infection; assay type: functional; design: scale not given: the % may be the effect or the level left
[24] = tested on: Plasmodium berghei; assay: Antimalarial activity against GFP-tagged Plasmodium berghei ANKA infected in NMRI mouse assessed as mouse survival at 30 mg/kg, po QD administered 24 hrs post infection for 3 days measured on day 30 post infection; assay type: functional
[25] = in vitro; settings: human
Description: Metabolic stability in human hepatic microsomes assessed as extraction ratio by LC/MS/MS analysis

[26] = in vitro; settings: rat
Description: Metabolic stability in rat hepatic microsomes assessed as extraction ratio by LC/MS/MS analysis

SMILES: NC(Cc1ccccc1)C(=O)N1CCn2c(nc(-c3ccccc3)c2Nc2ccc3c(c2)OCO3)C1 (racemic)
- IC50 [1]: 271 nM
- Selectivity Index [2]: >20
- Selectivity Index [3]: >20
- CC50 [4]: > 10000 nM
- IC50 [5]: 235 nM

SMILES: N[C@H](Cc1ccccc1)C(=O)N1CCn2c(nc(-c3ccc(F)cc3)c2Nc2ccc(F)cc2)C1
- IC50 [1]: 59 nM
- IC50 [5]: 70 nM

SMILES: Fc1ccc(Nc2c(-c3ccc(F)cc3)nc3cnccn23)cc1
- IC50 [1]: 5520 nM
- IC50 [5]: > 10 nM

SMILES: NCC(=O)N1CCn2c(nc(-c3ccc(F)cc3)c2Nc2cccc(F)c2)C1
- IC50 [1]: 34 nM
- IC50 [5]: 50 nM

SMILES: CC(C)CC(N)C(=O)N1CCn2c(nc(-c3ccccc3)c2Nc2ccc3c(c2)OCO3)C1 (racemic)
- IC50 [1]: 119 nM
- Selectivity Index [2]: >20
- Selectivity Index [3]: >20
- CC50 [4]: > 10000 nM
- IC50 [5]: 116 nM

SMILES: Cc1ccc(-c2nc3n(c2Nc2ccc(F)cc2)CCN(C(=O)CN)C3)cc1
- IC50 [1]: 3360 nM
- IC50 [5]: 3140 nM

SMILES: NCC(=O)N1CCn2c(nc(-c3ccc(F)cc3)c2Nc2ccc(F)cc2)C1
- IC50 [1]: 23 nM
- half-life [6]: 4.2 h
- half-life [7]: 2.7 h
- bioavailability [8]: 15%
- Tmax [9]: 2 h
- permeability [10]: 52%
- Papp A→B [11]: 0.7 ×10⁻⁶ cm/s
- Cmax [12]: 234 nM
- AUC(0-inf) [13]: 1.07 µM·h
- Vd [14]: 12.3 L/kg
- AUC(0-inf) [15]: 0.965 µM·h
- IC50 [5]: 20 nM
- clearance [16]: 189 mL/min/kg

SMILES: Cc1ccc(Nc2c(-c3ccc(F)c(F)c3)nc3n2CCN(C(=O)C(C)(C)N)C3)cc1
- IC50 [1]: 50 nM
- IC50 [5]: 60 nM

SMILES: NCC(=O)N1CCn2c(nc(-c3ccc(Cl)cc3)c2Nc2ccc(F)cc2)C1
- IC50 [1]: 437 nM
- IC50 [5]: 660 nM

SMILES: NCCC(=O)N1CCn2c(nc(-c3ccc(F)cc3)c2Nc2ccc(F)cc2)C1
- IC50 [1]: 75 nM
- IC50 [5]: 70 nM

SMILES: CC(C)(N)C(=O)N1CCn2c(nc(-c3ccccc3)c2Nc2ccc(F)cc2)C1
- IC50 [1]: 168 nM
- IC50 [5]: 200 nM

SMILES: CC(C)(N)C(=O)N1CCn2c(nc(-c3ccc(F)cc3)c2NC2CCCCC2)C1
- IC50 [1]: 5980 nM
- IC50 [5]: 9610 nM

SMILES: CC(C)(N)C(=O)N1CCn2c(nc(-c3ccc(F)cc3)c2Nc2ccc(F)cc2F)C1
- IC50 [1]: 90 nM
- IC50 [5]: 110 nM

SMILES: NCC(=O)N1CCn2c(nc(-c3cccc(F)c3)c2Nc2ccc(F)cc2)C1
- IC50 [1]: 30 nM
- half-life [6]: 1 h
- hepatic extraction ratio ([17]; liver microsomes): 0.31
- half-life [7]: 1.8 h
- bioavailability [8]: 18%
- Tmax [9]: 2 h
- Survival [18]: 10 days
- IC50 [19]: > 30000 nM
- Survival [20]: 6 days
- Papp A→B [11]: 0.56 ×10⁻⁶ cm/s
- Cmax [12]: 417 nM
- AUC(0-inf) [13]: 1.23 µM·h
- Vd [14]: 21.6 L/kg
- Activity [21]: 86%
- Papp B→A [22]: 2.32 ×10⁻⁶ cm/s
- AUC(0-inf) [15]: 1.33 µM·h
- IC50 [5]: 10 nM
- Activity [23]: 99.7%
- clearance [16]: 192 mL/min/kg

SMILES: CCc1nc(N)nc(N)c1-c1ccc(Cl)cc1 [PYRIMETHAMINE]
- IC50 [1]: > 10000 nM

SMILES: CCN(CC)CCCC(C)Nc1ccnc2cc(Cl)ccc12 (centres undefined) [CHLOROQUINE]
- Survival [24]: 18.8 days
- Survival [18]: 12 days
- Survival [20]: 8.7 days
- Activity [23]: >99.9%

SMILES: C[C@@H]1CC[C@H]2[C@@H](C)C(=O)O[C@@H]3O[C@@]4(C)CC[C@@H]1[C@]32OO4 [ARTEMISININ]
- IC50 [5]: 12 nM

SMILES: Fc1ccc(Nc2c(-c3ccc(F)cc3)nc3n2CCNC3)cc1
- IC50 [1]: 175 nM
- IC50 [5]: 200 nM

SMILES: C[C@H](N)C(=O)N1CCn2c(nc(-c3ccc(F)cc3)c2Nc2ccc(F)cc2)C1
- IC50 [1]: 64 nM
- IC50 [5]: 90 nM

SMILES: CC(C)(N)C(=O)N1CCn2c(nc(-c3ccc(F)cc3)c2Nc2ccc(Cl)c(F)c2)C1
- IC50 [1]: 52 nM
- half-life [6]: 9.1 h
- hepatic extraction ratio ([17]; microsomes): 0.76
- half-life [7]: 7.8 h
- bioavailability [8]: 24%
- Tmax [9]: 2 h
- Survival [18]: 11 days
- hepatic extraction ratio ([25]; microsomes): 0.48
- IC50 [19]: 5600 nM
- hepatic extraction ratio ([26]; microsomes): 0.67
- permeability [10]: 94%
- Survival [20]: 7 days
- Papp A→B [11]: 0.84 ×10⁻⁶ cm/s
- Cmax [12]: 3320 nM
- AUC(0-inf) [13]: 25.5 µM·h
- Vd [14]: 1.7 L/kg
- Papp B→A [22]: 0.87 ×10⁻⁶ cm/s
- AUC(0-inf) [15]: 36.7 µM·h
- IC50 [5]: 40 nM
- Activity [23]: 99.8%
- clearance [16]: 5.8 mL/min/kg

SMILES: NCC(=O)N1CCn2c(nc(-c3ccc(F)cc3)c2Nc2ccc(F)c(F)c2)C1
- IC50 [1]: 23 nM
- hepatic extraction ratio ([17]; liver microsomes): 0.21
- hepatic extraction ratio ([25]; liver microsomes): 0.21
- hepatic extraction ratio ([26]; liver microsomes): 0.38
- Papp A→B [11]: 0.99 ×10⁻⁶ cm/s
- Papp B→A [22]: 2.99 ×10⁻⁶ cm/s
- IC50 [5]: 30 nM

SMILES: CC(C)(N)C(=O)N1CCn2c(nc(-c3ccc(F)cc3)c2Nc2cccnc2)C1
- IC50 [1]: 3320 nM
- IC50 [5]: 1410 nM

SMILES: N[C@@H](Cc1ccccc1)C(=O)N1CCn2c(nc(-c3ccc(F)cc3)c2Nc2ccc(F)cc2)C1
- IC50 [1]: 121 nM
- IC50 [5]: 110 nM

SMILES: CC(C)(N)C(=O)N1CCn2c(nc(-c3ccccc3F)c2Nc2ccc(F)cc2)C1
- IC50 [1]: 1280 nM
- IC50 [5]: 1390 nM

SMILES: COc1ccc(-c2nc3n(c2Nc2ccc(F)cc2)CCN(C(=O)CN)C3)cc1
- IC50 [1]: 1700 nM
- IC50 [5]: 2270 nM

SMILES: CC(C)(N)C(=O)N1CCn2c(nc(-c3ccc(F)cc3)c2Nc2cc(F)cc(F)c2)C1
- IC50 [1]: 244 nM
- IC50 [5]: 220 nM

SMILES: NCC(=O)N1CCn2c(nc(-c3ccc(F)cc3)c2Nc2ccc(Cl)cc2)C1
- IC50 [1]: 9 nM
- hepatic extraction ratio ([17]; liver microsomes): 0.17
- hepatic extraction ratio ([25]; liver microsomes): 0.55
- hepatic extraction ratio ([26]; liver microsomes): 0.63
- permeability [10]: 52%
- Papp A→B [11]: 0.44 ×10⁻⁶ cm/s
- Papp B→A [22]: 1.25 ×10⁻⁶ cm/s
- IC50 [5]: 10 nM

SMILES: C[C@H]1[C@H](OC(=O)CCC(=O)O)O[C@@H]2O[C@@]3(C)CC[C@H]4[C@H](C)CC[C@@H]1[C@@]24OO3 [ARTESUNATE]
- Survival [18]: 6.7 days
- Survival [20]: 7.2 days
- Activity [21]: 89%
- Activity [23]: 97%

SMILES: CC(C)[C@H](N)C(=O)N1CCn2c(nc(-c3ccc(F)cc3)c2Nc2ccc(F)cc2)C1
- IC50 [1]: 24 nM
- IC50 [5]: 30 nM
